We go through two compounds from PMC3013379 (Bioorganic & Medicinal Chemistry Letters, 2011).

Usually IC50 stands for the concentration that inhibits the measured activity by half.

Experiment [1] deals with T1, human recombinant IKK-β (Homo sapiens, UniProt O14920).
T1 sequence (O14920 1-756): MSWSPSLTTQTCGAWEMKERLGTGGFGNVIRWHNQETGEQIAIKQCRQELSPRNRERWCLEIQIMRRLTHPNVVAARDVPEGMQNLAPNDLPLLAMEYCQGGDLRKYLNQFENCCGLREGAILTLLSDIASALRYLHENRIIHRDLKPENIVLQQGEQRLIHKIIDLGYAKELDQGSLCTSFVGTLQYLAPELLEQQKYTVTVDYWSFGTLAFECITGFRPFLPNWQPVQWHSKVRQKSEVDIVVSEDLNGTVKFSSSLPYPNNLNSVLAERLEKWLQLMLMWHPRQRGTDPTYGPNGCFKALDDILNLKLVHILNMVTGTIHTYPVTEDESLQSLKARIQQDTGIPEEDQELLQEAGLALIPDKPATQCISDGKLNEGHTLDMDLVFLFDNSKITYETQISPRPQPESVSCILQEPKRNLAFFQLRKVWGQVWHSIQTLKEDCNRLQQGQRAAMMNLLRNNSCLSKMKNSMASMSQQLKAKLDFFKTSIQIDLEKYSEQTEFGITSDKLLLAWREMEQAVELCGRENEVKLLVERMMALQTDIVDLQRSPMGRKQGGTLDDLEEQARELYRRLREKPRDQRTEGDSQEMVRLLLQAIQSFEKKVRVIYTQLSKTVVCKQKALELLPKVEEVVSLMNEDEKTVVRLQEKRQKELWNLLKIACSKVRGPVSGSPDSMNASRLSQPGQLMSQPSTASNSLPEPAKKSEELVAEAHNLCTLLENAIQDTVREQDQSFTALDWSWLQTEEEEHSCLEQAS
Description: ELISA-based. Format: biochemical.

In experiment [2] the test system is NF-κB activation induced by TNF-α in HEK293 cells (293/NFκB-luc). Format: cell-based. The following applies: HEK293 NF-κB luciferase reporter cells, 2 ng/ml TNF-α for 6 h. In general terms: A reporter such as luciferase makes a cellular process visible.

The structures appear in SMILES notation.

In the case of `O=C(OCCC12CC3CC(CC(C3)C1)C2)c1ccc(NCc2cc(O)ccc2O)cc1` [Compound 8, 2-(1-adamantyl)ethyl 4-[(2,5-dihydroxyphenyl)methylamino]benzoate], the 50% inhibitory concentration (IC50) in experiment [1] is 6.95 ± 0.55 µM. Further, in experiment [2], the “Effect on TNF-α-induced luciferase activity (in words)” value is “inhibited TNF-α-induced luciferase activity dose-dependently”.
`NC(=O)Nc1sc(-c2ccc(F)cc2)cc1C(N)=O` [IKK-β inhibitor IV, reference compound]: in experiment [2], the “Effect on TNF-α-induced luciferase activity (in words)” value is recorded as “inhibited TNF-α-induced luciferase activity dose-dependently”.
